In patent US20250340569A1, “INHIBITORS OF KIF18A AND USES THEREOF” (Insilico Medicine IP Limited, priority 2023, published 2025):

Columns and labels:
Kif18A = biological target: T1, Kif18A (Homo sapiens, UniProt Q8NI77); test: KIF18A assay (ADP Glo); conditions: biochemical assay, ADP Glo luminescence
T1 sequence (Q8NI77 1-898): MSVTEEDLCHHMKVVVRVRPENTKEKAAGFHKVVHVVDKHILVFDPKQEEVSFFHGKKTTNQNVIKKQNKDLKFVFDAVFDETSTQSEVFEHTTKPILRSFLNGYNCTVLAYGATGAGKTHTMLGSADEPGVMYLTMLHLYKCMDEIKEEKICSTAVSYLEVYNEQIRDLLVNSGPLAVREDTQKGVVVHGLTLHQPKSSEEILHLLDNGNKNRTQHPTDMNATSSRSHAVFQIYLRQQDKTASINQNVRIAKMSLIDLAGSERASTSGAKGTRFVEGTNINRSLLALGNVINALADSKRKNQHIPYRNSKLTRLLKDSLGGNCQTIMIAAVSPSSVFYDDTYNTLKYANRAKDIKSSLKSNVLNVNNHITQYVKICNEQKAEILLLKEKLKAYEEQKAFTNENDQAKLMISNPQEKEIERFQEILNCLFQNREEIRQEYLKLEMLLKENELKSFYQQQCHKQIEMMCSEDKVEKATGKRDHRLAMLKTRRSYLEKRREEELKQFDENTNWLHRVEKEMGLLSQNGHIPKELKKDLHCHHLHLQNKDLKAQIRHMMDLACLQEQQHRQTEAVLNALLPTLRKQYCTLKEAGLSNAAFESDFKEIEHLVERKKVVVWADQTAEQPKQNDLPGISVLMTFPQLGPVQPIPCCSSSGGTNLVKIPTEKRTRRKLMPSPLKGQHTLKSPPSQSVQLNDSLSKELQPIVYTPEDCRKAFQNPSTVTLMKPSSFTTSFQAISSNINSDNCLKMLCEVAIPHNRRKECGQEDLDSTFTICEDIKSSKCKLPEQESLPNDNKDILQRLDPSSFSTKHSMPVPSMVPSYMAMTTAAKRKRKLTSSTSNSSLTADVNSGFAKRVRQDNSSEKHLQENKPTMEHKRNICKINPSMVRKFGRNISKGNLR
Experimental: The KIF18A assay was performed as follows:
1.1. Prepared 1× Kinase Buffer
• a) Added 40 μL test compound to 384-well dilution plate • b) Diluted compound 1:3 in succession in DMSO for each column for 10 pts • c) Transferred 0.1 μL diluted compound solution to 384 assay plate using Echo, each column containing 2 replicates • d) Added 5 μL enzyme working solution to 384-well assay plate, centrifuge 1000 RPM for 1 min e) Incubated at 25° C. for 15 min • f) Added 5 μL ATP working solution to initiate reaction • g) Incubated at 25° C. for 60 min • h) Added 10 μL ADP Glo reagent, centrifuge 1000 RPM for 1 min • i) Incubated at 25° C. for 60 min • j) Added 20 μL kinase detection reagent, centrifuge 1000 RPM for 1 min • k) Incubated at 25° C. for 60 min • l) Read Luminescence Signal on Envision 2104 plate reader.
1.3. Data Analysis—Calculated IC50 and Plot Dose-Response Curve of Compounds:
Calculated IC50 by fitting % Inhibition values and log of compound concentrations to nonlinear regression (dose response−variable slope) with GraphPad 6.0.
[formula] • X: log of inhibitor concentration; Y: % Inhibition

OVCAR-3 = test: OVCAR3 CTG assay; format: cell-based; conditions: Homo sapiens, OVCAR-3, 144 h; CellTiter-Glo, 6 days incubation
Description: Example B2: OVCAR3 CTG Assay
• a) Preparation of complete medium: Added FBS and appropriate additives according to the information sheet provided by the vendor. Mix gently. • b) Checked the cell name and complete medium and passage number marked on the flask. For adherent cell lines, refer to c to k. For suspension cell lines, refer to g to k. • c) Removed and discarded culture medium using a vacuum pump. • d) Briefly rinsed the cell layer with 0.25% (w/v) Trypsin-0.038% (w/v) EDTA solution to remove all traces of serum that contains trypsin inhibitor. • e) Added 3.0 ml of Trypsin-EDTA solution to flask and observed cells under an inverted microscope until cell layer is dispersed. • f) Added 9.0 ml of complete growth medium and aspirated cells by gently pipetting. • g) Transfered the cell suspension to a centrifuge tube and centrifuged at 1000 rpm for 4 minutes. • h) Discarded the supernatant using a vacuum pump. • i) Added appropriate volume of complete medium. Suspended the cell pellet by gently pipetting. • j) Counted the cell numbers with Vi-cell XR and adjusted cells to appropriate density. • k) Added 190 μL of cell suspension to 96-well opaque-walled clear bottom plates according to the planned plate layout and placed the plates in the CO2 incubator overnight.
2) Compound Stock Preparation:
• a) Plate preparation of testing articles:
The compounds were dissolved in DMSO to prepare 10 mM stock solution. The start working concentration (2 mM) was prepared with DMSO.
b) Staurosporine Plate Preparation:
0.4 mM Staurosporine was prepared in DMSO at working concentration.
The 20× compound containing medium was prepared according to the plate map. 10 μL of 20× compound containing medium was added into each well of the assay plates. Centrifuged at 1000 rpm for 1 minute. The total dilution was 200-fold.
3) Cells were Incubated with the Compounds for 6 Days at 5% CO2, 37° C.
Assay Measurement for CTG Assay
1) Preparation of Reagents
• a) Thawed the CellTiter-Glo buffer and equilibrated to room temperature prior to use. • b) Equilibrated the lyophilized CellTiter-Glo substrate to room temperature prior to use. • c) Transfered the appropriate volume of CellTiter-Glo buffer into the amber bottle containing CellTiter-Glo substrate to reconstitute the lyophilized enzyme/substrate mixture. This formed the CellTiter-Glo reagent. • d) Mixed by gently vortexing, swirling or by inverting the contents to obtain a homogeneous solution. The CellTiter-Glo substrate went into solution easily in less than one minute.
• a) Observed the cell morphology under an inverted microscope after corresponding treatment. • b) Equilibrated the plate and its contents to room temperature for approximately 30 minutes. • c) Added 100 μL of CellTiter-Glo reagent to the assay plate by Multidrop Combi instrument. • d) Mixed contents for 10 minutes on an orbital shaker to induce cell lysis. • e) Allowed the plate to incubate at room temperature for 10 minutes to stabilize luminescent signal. • f) Pasted the clear bottom with white back seal and record luminescence with Envision. The settings should be: Luminescence, measurement time 0.1 s.

Row | SMILES | IC50 (Kif18A) [nM] | IC50 (OVCAR-3) [nM]
1 | Cc1cc2nc(n1)N(C)CCOCC1(C)CCN(CC1)c1cc(NS(=O)(=O)CCO)ccc1C(=O)N2 [EX04] | 10 to 100 | 10 to 100
2 | Cc1cc2nc(n1)OCCCOCC1(C)CCN(CC1)c1cc(NS(=O)(=O)CCO)ccc1C(=O)N2 [EX05] | < 10 | 10 to 100
3 | Cc1cc2nc(n1)N(C)CCCOCC1(C)CCN(CC1)c1cc(NS(=O)(=O)CCO)ccc1C(=O)N2 [EX06] | < 10 | 100 to 1000
4 | CC12CCN(CC1)c1cc(NS(C)(=O)=O)ccc1C(=O)Nc1cccc(n1)OCCCOC2 [EX08] | < 10 | 100 to 1000
5 | Cc1cc2nc(n1)N(C)CCOCCC1(C)CCN(CC1)c1cc(NS(=O)(=O)CCO)ccc1C(=O)N2 [EX09] | 10 to 100 | 100 to 1000
6 | CN1CCOCC2(C)CCN(CC2)c2cc(NS(=O)(=O)CCO)ccc2C(=O)Nc2cccc(c2)C1=O [EX10] | 10 to 100 | 100 to 1000
7 | O=C1Nc2cccc(n2)OCCCOCC2CCN(CC2)c2cc(NS(=O)(=O)CCO)ccc21 [EX11] | 10 to 100 | 100 to 1000
8 | Cc1cc2nc(n1)NCCCOCC1(C)CCN(CC1)c1cc(NS(=O)(=O)CCO)ccc1C(=O)N2 [EX12] | 10 to 100 | 10 to 100
9 | CC12CCN(CC1)c1cc(NS(=O)(=O)CCO)ccc1C(=O)Nc1ccc(=O)n(n1)CCCCOC2 [EX13] | 10 to 100 | 100 to 1000
10 | Cc1cc2nc(n1)N(C)CCCOCC1(C)CCN(CC1)c1cc(S(=O)(=O)NC(C)(C)C)ccc1C(=O)N2 [EX15] | 10 to 100 | 100 to 1000
11 | CNS(=O)(=O)c1ccc2c(c1)N1CCC(C)(CC1)COCCCN(C)c1nc(C)cc(n1)NC2=O [EX16] | 10 to 100 | 100 to 1000
12 | Cc1cc2nc(n1)NCCCOCC1(C(F)(F)F)CCN(CC1)c1cc(NS(=O)(=O)CCO)ccc1C(=O)N2 [EX17] | < 10 | < 10
13 | Cc1cc2nc(n1)NCCCCOC1(C)CCN(CC1)c1cc(NS(=O)(=O)CCO)ccc1C(=O)N2 [EX18] | 10 to 100 | 100 to 1000
14 | Cc1cc2nc(n1)NCC(C)COCC1(C)CCN(CC1)c1cc(NS(=O)(=O)CCO)ccc1C(=O)N2 (stereo not shown) [EX19] | < 10 | < 10
15 | Cc1cc2nc(n1)NC(C)CCOCC1(C)CCN(CC1)c1cc(NS(=O)(=O)CCO)ccc1C(=O)N2 (stereo not shown) [EX20] | 10 to 100 | 10 to 100
16 | CN1CCOCC2(C)CCN(CC2)c2cc(NS(=O)(=O)CCO)ccc2C(=O)Nc2cccc(n2)C1=O [EX21] | 100 to 1000 | 100 to 1000

Row | SMILES | IC50 (Kif18A) [nM] | IC50 (OVCAR-3) [nM]
17 | CN1CCCOCC2(C)CCN(CC2)c2cc(NS(=O)(=O)CCO)ccc2C(=O)Nc2cccc(n2)C1=O [EX22] | 100 to 1000 | 100 to 1000
18 | Cc1cc2nc(n1)NCCOCCC1(C)CCN(CC1)c1cc(NS(=O)(=O)CCO)ccc1C(=O)N2 [EX23] | 10 to 100 | 10 to 100
19 | Cc1cc2nc(n1)NCC(F)COCC1(C)CCN(CC1)c1cc(NS(=O)(=O)CCO)ccc1C(=O)N2 (stereo not shown) [EX24] | < 10 | 10 to 100
20 | Cc1cc2nc(n1)NCCCOCC1(C)CCN(CC1)c1cc(S(N)(=O)=O)ccc1C(=O)N2 [EX25-A] | 10 to 100 | 10 to 100
21 | Cc1cc2nc(n1)NCCCOCC1(C)CCN(CC1)c1cc(S(=O)(=O)NC(C)(C)C)ccc1C(=O)N2 [EX25] | 10 to 100 | < 10
22 | Cc1cc2nc(n1)N(CC(F)(F)F)CCCOCC1(C)CCN(CC1)c1cc(NS(=O)(=O)CCO)ccc1C(=O)N2 [EX26] | 10 to 100 | 1000 to 10000
23 | Cc1cc2nc(n1)N(C)CCCOCC1(C(F)(F)F)CCN(CC1)c1cc(NS(=O)(=O)CCO)ccc1C(=O)N2 [EX27] | 10 to 100 | 100 to 1000
24 | COC1CNc2nc(C)cc(n2)NC(=O)c2ccc(NS(=O)(=O)CCO)cc2N2CCC(C)(CC2)COC1 (stereo not shown) [EX31] | 10 to 100 | 10 to 100
25 | Cc1cc2nc(n1)N(C)C[C@H](C)COCC1(C)CCN(CC1)c1cc(NS(=O)(=O)CCO)ccc1C(=O)N2 [EX33-A] | 10 to 100 | 100 to 1000
26 | Cc1cc2nc(n1)N(C)C[C@@H](C)COCC1(C)CCN(CC1)c1cc(NS(=O)(=O)CCO)ccc1C(=O)N2 [EX33-B] | 10 to 100 | 1000 to 10000
27 | Cc1cc2nc(n1)NCCCCCC1(C)CCN(CC1)c1cc(NS(=O)(=O)CCO)ccc1C(=O)N2 [EX34] | < 10 | < 10
28 | Cc1cc2nc(n1)N(C)CC(C)COCC1(C(F)(F)F)CCN(CC1)c1cc(NS(=O)(=O)CCO)ccc1C(=O)N2 (stereo not shown) [EX35] | 10 to 100 | 100 to 1000
29 | Cc1cc2nc(n1)NC[C@H](C)COCC1(C(F)(F)F)CCN(CC1)c1cc(NS(=O)(=O)CCO)ccc1C(=O)N2 [EX36-A] | 10 to 100 | 10 to 100
30 | Cc1cc2nc(n1)NC[C@@H](C)COCC1(C(F)(F)F)CCN(CC1)c1cc(NS(=O)(=O)CCO)ccc1C(=O)N2 [EX36-B] | 10 to 100 | < 10
31 | Cc1cc2nc(n1)NCCCCC1(C)CCN(CC1)c1cc(NS(=O)(=O)CCO)ccc1C(=O)N2 [EX37] | < 10 | 10 to 100
32 | Cc1cc2nc(n1)NCCC(C)OCC1(C)CCN(CC1)c1cc(NS(=O)(=O)CCO)ccc1C(=O)N2 (stereo not shown) [EX38] | 10 to 100 | 10 to 100
